Among the data in patent US7943770B2, “Fused quinoline derivative and use thereof” (Takeda Pharmaceutical Company Limited, priority 2004, dated 2011) are IC50 values, retold here.

Usually IC50 stands for the midpoint of a concentration-inhibition curve. Lower therefore signals greater potency.

Each structure is given as a SMILES string. Where only a bound is given, the exact number is not on record here.

For this experiment, the target named is T1, hNK2 receptor (Homo sapiens, UniProt P21452).
T1 construct: host or cells: CHO cells
T1 sequence (P21452 1-398): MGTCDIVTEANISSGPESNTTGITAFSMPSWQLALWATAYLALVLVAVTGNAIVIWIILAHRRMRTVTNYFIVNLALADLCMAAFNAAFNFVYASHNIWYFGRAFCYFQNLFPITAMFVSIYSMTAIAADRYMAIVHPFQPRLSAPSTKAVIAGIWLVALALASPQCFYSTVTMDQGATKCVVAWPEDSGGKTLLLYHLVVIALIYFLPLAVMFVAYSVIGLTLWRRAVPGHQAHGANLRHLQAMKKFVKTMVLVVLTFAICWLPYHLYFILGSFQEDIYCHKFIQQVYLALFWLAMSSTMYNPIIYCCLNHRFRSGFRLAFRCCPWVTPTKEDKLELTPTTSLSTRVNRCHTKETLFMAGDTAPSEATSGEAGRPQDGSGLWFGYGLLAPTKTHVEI
Nature of the experiment: Radio-ligand ([125I]-NKA) receptor binding inhibitory activity using membrane fraction of hNK2 receptor-expressing CHO cell. The following applies: membrane fraction of hNK2 receptor-expressing CHO cells, 25° C., 30 min. In a few lines: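 Membranes from hNK2-expressing CHO cells (20 μg/mL suspension) incubated with test compound and [125I]-NKA ([…] solution as added) in Tris-HCl pH 7.4 with BSA, protease inhibitors, 3 mM MnCl2, 25 °C, 30 min. Bound radioactivity by GF/C filtration and scintillation; inhibition expressed relative to specific binding (total minus unlabeled-NKA non-specific).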
Consider `COC[C@@H]1Nc2ccccc2[C@H]2[C@@H]1CCN2C(=O)[C@H]1CCCC[C@H]1NC(=O)c1ccc2nccnc2c1` [Example 246, N-((1R,2S)-2-{[(3aR,4R,9bR)-4-(Methoxymethyl)-2,3,3a,4,5,9b-hexahydro-1H-pyrrolo[3,2-c]quinolin-1-yl]carbonyl}cyclohexyl)quinoxaline-6-carboxamide], for which the IC50 is less than 10 nM.

As to `COC[C@@H]1Nc2ccccc2[C@H]2[C@@H]1CCN2C(=O)[C@H]1CCCC[C@H]1NC(=O)c1ccc2ccccc2n1` [Example 247, N-((1R,2S)-2-{[(3aR,4R,9bR)-4-(Methoxymethyl)-2,3,3a,4,5,9b-hexahydro-1H-pyrrolo[3,2-c]quinolin-1-yl]carbonyl}cyclohexyl)quinoline-2-carboxamide], the IC50 was less than 10 nM. For the molecule `COC[C@@H]1Nc2ccccc2[C@H]2[C@@H]1CCN2C(=O)[C@H]1CCCC[C@H]1NC(=O)c1ccc2c(c1)CCO2` [Example 248, N-((1R,2S)-2-{[(3aR,4R,9bR)-4-(Methoxymethyl)-2,3,3a,4,5,9b-hexahydro-1H-pyrrolo[3,2-c]quinolin-1-yl]carbonyl}cyclohexyl)-2,3-dihydro-1-benzofuran-5-carboxamide], the IC50 was less than 1 nM. The value for `COC[C@@H]1Nc2ccccc2[C@H]2[C@@H]1CCN2C(=O)[C@H]1CCCC[C@H]1NC(=O)c1onc2ccccc12` [Example 249, N-((1R,2S)-2-{[(3aR,4R,9bR)-4-(Methoxymethyl)-2,3,3a,4,5,9b-hexahydro-1H-pyrrolo[3,2-c]quinolin-1-yl]carbonyl}cyclohexyl)-2,1-benzisoxazole-3-carboxamide] was less than 10 nM; that for `COC[C@@H]1Nc2ccccc2[C@H]2[C@@H]1CCN2C(=O)[C@H]1CCCC[C@H]1NC(=O)c1ccc(-n2ccnc2)cc1` [Example 250, 4-(1H-Imidazol-1-yl)-N-((1R,2S)-2-{[(3aR,4R,9bR)-4-(methoxymethyl)-2,3,3a,4,5,9b-hexahydro-1H-pyrrolo[3,2-c]quinolin-1-yl]carbonyl}cyclohexyl)benzamide] was less than 1 nM; that for `COC[C@@H]1Nc2ccccc2[C@H]2[C@@H]1CCN2C(=O)[C@H]1CCCC[C@H]1NC(=O)c1ccc(N2N=C(C)CC2=O)cc1` [Example 252, N-((1R,2S)-2-{[(3aR,4R,9bR)-4-(Methoxymethyl)-2,3,3a,4,5,9b-hexahydro-1H-pyrrolo[3,2-c]quinolin-1-yl]carbonyl}cyclohexyl)-4-(3-methyl-5-oxo-4,5-dihydro-1H-pyrazol-1-yl)benzamide] was less than 1 nM. Then `COC[C@@H]1Nc2ccccc2[C@H]2[C@@H]1CCN2C(=O)[C@H]1CCCC[C@H]1NC(=O)c1ccc2ncsc2c1` [Example 253, N-((1R,2S)-2-{[(3aR,4R,9bR)-4-(Methoxymethyl)-2,3,3a,4,5,9b-hexahydro-1H-pyrrolo[3,2-c]quinolin-1-yl]carbonyl}cyclohexyl)-1,3-benzothiazole-6-carboxamide], with less than 10 nM; and `COC[C@@H]1Nc2ccccc2[C@H]2[C@@H]1CCN2C(=O)[C@H]1CCCC[C@H]1NC(=O)c1ccc(N2CCCCC2)nc1` [Example 254, N-((1R,2S)-2-{[(3aR,4R,9bR)-4-(Methoxymethyl)-2,3,3a,4,5,9b-hexahydro-1H-pyrrolo[3,2-c]quinolin-1-yl]carbonyl}cyclohexyl)-6-piperidin-1-ylnicotinamide], with less than 1 nM. For `COC[C@@H]1Nc2ccccc2[C@H]2[C@@H]1CCN2C(=O)[C@H]1CCCC[C@H]1NC(=O)c1ccc(C#N)c(C)c1` [Example 256, 4-Cyano-N-((1R,2S)-2-{[(3aR,4R,9bR)-4-(methoxymethyl)-2,3,3a,4,5,9b-hexahydro-1H-pyrrolo[3,2-c]quinolin-1-yl]carbonyl}cyclohexyl)-3-methylbenzamide], the IC50 was less than 1 nM.

Molecule `COC[C@@H]1Nc2ccccc2[C@H]2[C@@H]1CCN2C(=O)[C@H]1CCCC[C@H]1NC(=O)c1ccc(-n2cccc2)cc1` [Example 258, N-((1R,2S)-2-{[(3aR,4R,9bR)-4-(Methoxymethyl)-2,3,3a,4,5,9b-hexahydro-1H-pyrrolo[3,2-c]quinolin-1-yl]carbonyl}cyclohexyl)-4-(1H-pyrrol-1-yl)benzamide] showed an IC50 of less than 1 nM. Then `COC[C@@H]1Nc2ccccc2[C@H]2[C@@H]1CCN2C(=O)[C@H]1CCCC[C@H]1NC(=O)c1ccc2[nH]cnc2c1` [Example 259, N-((1R,2S)-2-{[(3aR,4R,9bR)-4-(Methoxymethyl)-2,3,3a,4,5,9b-hexahydro-1H-pyrrolo[3,2-c]quinolin-1-yl]carbonyl}cyclohexyl)-1H-benzimidazole-5-carboxamide], with less than 10 nM. Then `COC[C@@H]1Nc2ccccc2[C@H]2[C@@H]1CCN2C(=O)[C@H]1CCCC[C@H]1NC(=O)c1ccc(-c2csc(C)n2)cc1` [Example 261, N-((1R,2S)-2-{[(3aR,4R,9bR)-4-(Methoxymethyl)-2,3,3a,4,5,9b-hexahydro-1H-pyrrolo[3,2-c]quinolin-1-yl]carbonyl}cyclohexyl)-4-(2-methyl-1,3-thiazol-4-yl)benzamide], with less than 1 nM.

For `COC[C@@H]1Nc2ccccc2[C@H]2[C@@H]1CCN2C(=O)[C@H]1CCCC[C@H]1NC(=O)c1ccc(CNC(C)=O)cc1` [Example 263, 4-[(Acetylamino)methyl]-N-((1R,2S)-2-{[(3aR,4R,9bR)-4-(methoxymethyl)-2,3,3a,4,5,9b-hexahydro-1H-pyrrolo[3,2-c]quinolin-1-yl]carbonyl}cyclohexyl)benzamide], the half-inhibitory concentration (IC50) was less than 10 nM. For `COC[C@@H]1Nc2ccccc2[C@H]2[C@@H]1CCN2C(=O)[C@H]1CCCC[C@H]1NC(=O)c1ccc(-n2cccn2)cc1` [Example 264, N-((1R,2S)-2-{[(3aR,4R,9bR)-4-(Methoxymethyl)-2,3,3a,4,5,9b-hexahydro-1H-pyrrolo[3,2-c]quinolin-1-yl]carbonyl}cyclohexyl)-4-(1H-pyrazol-1-yl)benzamide], the 50% inhibitory concentration (IC50) was less than 1 nM.

With `COC[C@@H]1Nc2ccccc2[C@H]2[C@@H]1CCN2C(=O)[C@H]1CCCC[C@H]1NC(=O)c1ccc(-n2cncn2)cc1` [Example 265, N-((1R,2S)-2-{[(3aR,4R,9bR)-4-(Methoxymethyl)-2,3,3a,4,5,9b-hexahydro-1H-pyrrolo[3,2-c]quinolin-1-yl]carbonyl}cyclohexyl)-4-(1H-1,2,4-triazol-1-yl)benzamide], the IC50 is less than 1 nM. Then `COC[C@@H]1Nc2ccccc2[C@H]2[C@@H]1CCN2C(=O)[C@H]1CCCC[C@H]1NC(=O)c1ccc(NCCO)cc1` [Example 266, 4-[(2-Hydroxyethyl)amino]-N-((1R,2S)-2-{[(3aR,4R,9bR)-4-(methoxymethyl)-2,3,3a,4,5,9b-hexahydro-1H-pyrrolo[3,2-c]quinolin-1-yl]carbonyl}cyclohexyl)benzamide], with less than 10 nM. The value for `COC[C@@H]1Nc2ccccc2[C@H]2[C@@H]1CCN2C(=O)[C@H]1CCCC[C@H]1NC(=O)c1ccc(N2CCN(C)CC2)cc1` [Example 267, N-((1R,2S)-2-{[(3aR,4R,9bR)-4-(Methoxymethyl)-2,3,3a,4,5,9b-hexahydro-1H-pyrrolo[3,2-c]quinolin-1-yl]carbonyl}cyclohexyl)-4-(4-methylpiperazin-1-yl)benzamide] was less than 10 nM.

In turn, `COC[C@@H]1Nc2ccccc2[C@H]2[C@@H]1CCN2C(=O)[C@H]1CCCC[C@H]1NC(=O)c1ccc(N2CCOCC2)cc1` [Example 268, N-((1R,2S)-2-{[(3aR,4R,9bR)-4-(Methoxymethyl)-2,3,3a,4,5,9b-hexahydro-1H-pyrrolo[3,2-c]quinolin-1-yl]carbonyl}cyclohexyl)-4-morpholin-4-benzamide] showed an IC50 of less than 10 nM.
